According to patent US20240336617A1, “Substituted Bimane Compounds and Methods of Use Thereof” (THE TRUSTEES OF THE UNIVERSITY OF PENNSYLVANIA, priority 2023, published 2024):
“Also recorded” adds a separate entry of the source.

Tests used:
[1] = Molar absorptivity determination; format: physicochemical;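 further: molar absorptivity derived from UV-Vis absorbance spectra recorded for each derivative on a spectrometer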
Experimental: The absorbance spectrum of each derivative (150 μL) was measured on a Thermo Scientific Genesys 150 UV-Vis spectrometer, using 50:50 ACN/PBS as a blank.
Molar absorptivity determination. […] The absorbance spectrum of each derivative (150 μL) was measured on a Thermo Scientific Genesys 150 UV-Vis spectrometer, using 50:50 ACN/PBS as a blank.

[2] = Fluorescence (emission) measurements; format: physicochemical;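 further: fluorescence emission spectra recorded on a spectrofluorometer, with each compound excited at its own absorption maximum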
Experimental: The fluorescence spectrum of each derivative (150 μL) was measured on a Photon Technology International (PTI) QuantaMaster™ 40 fluorescence spectrometer by excitation at the maximum absorption wavelength for each compound.
The fluorescence spectrum of each derivative (150 μL) was measured on a Photon Technology International (PTJ) QuantaMaster™ 40 fluorescence spectrometer by excitation at the maximum absorption wavelength for each compound.

[3] = pH measurements (absorption and emission); format: physicochemical; settings: pH 2-11
Experimental: 10 mM stock solutions of 7h, 7j, and 7k in DMSO were individually diluted into ACN/PBS buffer (50:50 v/v) having different pH ranging from pH 2-11 with 25 μM (500 μL) of final concentration. For pH screening of 7h and 7j, PBS buffer solutions were prepared, then adjusted the pH 2, 4, and 7 by adding 6 M hydrochloric acid, pH 9 and 11 by adding 5 M sodium hydroxide. For pH screening of 7k, pH 4.4 and 7.4 were prepared by citric acid/phosphate buffer. Then, the absorption and fluorescence spectra were recorded by using Thermo Scientific Genesys 150 UV-Vis spectrometer, followed by PTI QuantaMaster™ 40 fluorescence spectrometer by excitation with maximum absorption wavelength.
pH measurements. 10 mM stock solutions of 5h and 5j in DMSO were individually diluted into ACN/PBS buffer (50:50 v/v) having different pH ranging from pH 2-11 with 25 µM (500 μL) of final concentration. For pH screening of 5h and 5j, PBS buffer solutions were prepared, then adjusted the pH 2, 4, and 7 by adding 6 M hydrochloric acid, pH 9 and 11 by adding 5 M sodium hydroxide. Then, we have recorded the absorption and fluorescence spectra by using Thermo Scientific Genesys 150 UV-Vis spectrometer, followed by PTI QuantaMaster™ 40 fluorescence spectrometer by excitation with maximum absorption wavelength.

[4] = Absorbance measurements (UV-Vis); settings: for Absorbance Wavelength: ACN:PBS buffer (50:50 v/v); for Abs. λabs: 25 μM
Experimental: Samples were individually diluted to the final concentration of 25 μM (500 μL) using 50:50 acetonitrile in phosphate buffered saline (ACN/PBS). The absorbance spectrum of each derivative (150 μL) was measured on a Thermo Scientific Genesys 150 UV-Vis spectrometer, using 50:50 ACN/PBS as a blank.

[5] = Fluorescent quantum yield (QY) measurements; format: physicochemical; settings: for Fluorescence quantum yield: in ACN
Experimental: For each QY measurement, the incident excitation light spectrum was collected with 1 mL of solvent. […] Using the JASCO Quantum Yield Software, the dye QY was calculated by dividing the dye fluorescence intensity by the difference in incident light intensity in the presence and absence of dye. The minimum excitation wavelength for a full excitation incident spectrum using this setup is 360 nm.
Fluorescent quantum yield (QY) measurements. For each QY measurement, the incident excitation light spectrum was collected with 1 mL of solvent. After measuring the incident light intensity, dye (3 and 5a-5k) was added to the solvent from a concentrated stock solution to a final concentration of […] and the new spectrum (fluorescence intensity and new incident light intensity) was collected. Using the JASCO Quantum Yield Software, the dye QY was calculated by dividing the dye fluorescence intensity by the difference in incident light intensity in the presence and absence of dye. The minimum excitation wavelength for a full excitation incident spectrum using this setup is 360 nm.

Aβ1-42 fibrils = molecular target: T1, Aβ1-42 fibrils (Homo sapiens, UniProt P05067); experiment: Fluorescence and excitation spectra with Aβ1-42 fibrils; format: binding
T1 construct: The β-amyloid (1-42) peptide, human; purchased Genscript RP10017
Experimental: (§1) Fluorescence measurements were performed using a PTI QuantaMaster™ 40 fluorescence spectrometer. Fluorescence spectra of 10 μM probes (concentrated stock solution prepared as 10 mM in DMSO) (7j, 7k, 7l, 7m, and ThT) in PBS buffer were measured in the absence and presence of 50 μM Aβ1-42 fibrils (stock solution 1 mM Aβ1-42 in 10 mM phosphate buffer, pH 7.4).
(§2) Excitation spectral measurements were performed using a PTI QuantaMaster™ 40 fluorescence spectrometer. Excitation spectra of 10 μM probes (concentrated stock solution prepared as 10 mM in DMSO) (7j, 7k, 7l, 7m, and ThT) in PBS buffer were measured in the absence and presence of 50 μM Aβ1-42 fibrils (stock solution 1 mM Aβ1-42 in phosphate buffer).
as §1, with “(5j, 5k” for “(7j, 7k, 7l, 7m,”, “Ab1-42” for “Aβ1-42”
as §2, with “QuantaMaster” for “QuantaMaster™”, “(5j, 5k” for “(7j, 7k, 7l, 7m,”, “Ab1-42” for “Aβ1-42”, “buffer). […]” for “buffer).”

αS fibrils [6] = molecular target: T2, αS fibrils (Homo sapiens, UniProt P37840); experiment: Fluorescence spectra with αS fibrils; format: binding
T2 construct: intein-His6 (C, cleaved yes); made in house; host or cells: Escherichia coli BL21
Experimental: Fluorescence measurements were performed using a PTI QuantaMaster™ 40 fluorescence spectrometer. Fluorescence spectra of 10 μM probes (concentrated stock solution prepared as 10 mM in DMSO) (7b, 7c, 7d, 7e, 7f, 7g and 7h) in PBS buffer were measured by excitation at their absorbance maximum wavelength in the absence and presence of 50 μM αS fibrils (stock solution 100 μM αS fibrils in PBS buffer).
Fluorescence spectra with αS fibrils. Fluorescence measurements were performed using a PTI QuantaMaster 40 fluorescence spectrometer. Fluorescence spectra of 10 μM probes (concentrated stock solution prepared as 10 mM in DMSO) (5b-5f and 5h) in PBS buffer were measured by excitation at their absorbance maximum wavelength in the absence and presence of 50 μM αS fibrils (stock solution 100 μM αS fibrils in PBS buffer). […] FIGS. 77A-77F show fluorescence spectra of probes (5b-5f and 5h) with and without αS fibrils. Final concentrations of probes and αS fibrils were 10 μM and 50 μM, respectively. Emission spectra collected at each dye's maximum absorption wavelength. Ex/Em slit widths: 3 nm/3 nm. […] Absorbance is shown in FIG. 78A and FIG. 78B, whereas FIG. 78C and FIG. 78D show excitation spectra of probes 5j and 5k with and without αS fibrils. Final probe and fibrils concentrations were 10 μM and 50 μM, respectively. […] Emission wavelengths were 575 nm for 5j, 580 nm for 5k. Ex/Em slit widths: 3 nm/3 nm. […] Black line indicates incident light (αS fibrils without probe) and blue line indicates sample (αS fibrils with probe). Excitation at λexc=435 nm for 5j and λexc=463 nm for 5k and spectral collection (400-800 nm). Final concentrations of the probe and αS fibrils are the 100 μM. Ex/Em slit widths: 5 nm/5 nm.

αS fibrils [7] = molecular target: T2, αS fibrils; experiment: Competition binding with ThT on αS fibrils
[8] = 25 μM in ACN/PBS buffer (1:1 v/v), pH 7.4

T1 sequence (P05067 672-713): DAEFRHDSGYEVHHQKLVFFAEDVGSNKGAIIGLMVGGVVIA

Cc1c(C)n2c(/C=C/c3ccc(O)cc3)c(C)c(=O)n2c1=O [Compound 7h, (E)-3-(4-hydroxystyryl)-2,5,6-trimethyl-1H,7H-pyrazolo[1,2-a]pyrazole-1,7-dione]
Molar Absorptivity (ε) ([1]; ACN/PBS buffer (1:1 v/v), pH 7.4): 31514 M⁻¹ cm⁻¹
Molar Absorptivity (ε) ([1]; in ACN, at maximum absorption wavelength): 29910 M⁻¹ cm⁻¹
Emission λmax [2, 8]: 506 nm
maximum emission wavelength (λem) ([2]; 50:50 ACN/PBS, excitation at λabs): 505 nm
Stokes shift ([2]; ACN/PBS buffer (1:1 v/v)): 152 nm
Stokes shift ([2]; in ACN): 144 nm
pH effects on absorption and emission [3]: red-shifted absorption at pH 11 with a reduced QY, but no shift in emission
Absorbance λmax ([4]; 25 μM in ACN): 342 nm
Absorbance λmax [4, 8]: 354 nm
Absorbance Wavelength ([4]; Table 11): 348 nm
Absorbance Wavelength ([4]; Table S14): 354 nm
Fluorescence QY ([5]; ACN/PBS buffer (1:1 v/v)): 2.3%
Fluorescence quantum yield [5]: 3.1%
Fluorescence quantum yield ([5]; Table S12): 3.1%

Cc1c(C)n2c(/C=C/c3nc4ccc(N(C)C)cc4s3)c(C)c(=O)n2c1=O [Compound 8f, (E)-3-(2-(6-(dimethylamino)benzo[d]thiazol-2-yl)vinyl)-2,5,6-trimethyl-1H,7H-pyrazolo[1,2-a]pyrazole-1,7-dione]
fluorescence turn on with Aβ1-42 fibrils (Aβ1-42 fibrils): high turn on of fluorescence in the presence of PFFs; also recorded: selective fluorescence increases in the presence of Aβ1-42 fibrils
ε ([1]; ACN only): 25212 M⁻¹ cm⁻¹
ε ([1]; ACN:PBS (50:50 v/v)): 22370 M⁻¹ cm⁻¹
Stokes shift ([2]; ACN only): 189 nm
Em. λem ([2]; ACN only, 25 μM): 624 nm
Stokes shift ([2]; ACN:PBS (50:50 v/v)): 195 nm
Abs. λabs ([4]; ACN only): 435 nm
Abs. λabs ([4]; ACN:PBS (50:50 v/v)): 447 nm
Q.Y. ([5]; ACN only): 44.2%
Q.Y. ([5]; ACN:PBS (50:50 v/v)): 0.77%

(E)-3-(4-(dimethylamino)styryl)-2,5,6-trimethyl-1H,7H-pyrazolo[1,2-a]pyrazole-1,7-dione [Compound 7l]
concentration-dependent shift in the emission maximum with αS fibrils (αS fibrils [6]): binding at limited sites with high affinity
competition with ThT on αS PFFs (αS fibrils [7]): displacement of the known amyloid-binding dye ThT
Absorbance Wavelength ([4]; Table 11): 385 nm
